In brackets after ≈: the same amount, converted by molar mass.
Experiments:
HEK293 = assay: cells; assay type: functional; conditions: Homo sapiens, ATCC CRL1573, HEK293; ASSAY_TEST Inhibition of Cell Viability; detection method Resazurin; Fluorescence (ex560/em590); MEDIA DMEM with 10% FBS; plate type 384well; TC; CORNING #3712; time 18 hr
Candida albicans = assay: microbe, parasite or virus in culture; conditions: ATCC 90028, ASSAY_TEST Inhibition of Fungal Growth, detection method Absorption (OD530), plate type 384well, NBS, CORNING #3640
Description: Antifungal activity against Candida albicans ATCC 90028 (CO-ADD:FG_001); MIC in YNB media using NBS plates, by OD630

Staphylococcus aureus = assay: microbe, parasite or virus in culture; conditions: ATCC 43300, 18 h, ASSAY_TEST Inhibition of Bacterial Growth, detection method Absorption (OD600), MEDIA CAMHB, plate type 384well, NBS, CORNING #3640
Description: Antibacterial activity against Staphylococcus aureus MRSA ATCC 43300 (CO-ADD:GP_020); MIC in CAMBH media, using NBS plates, by OD(600)

Klebsiella pneumoniae = assay: microbe, parasite or virus in culture; conditions: ATCC 700603, 18 h, ASSAY_TEST Inhibition of Bacterial Growth, detection method Absorption (OD600), MEDIA CAMHB, plate type 384well, NBS, CORNING #3640
Description: Antibacterial activity against Klebsiella pneumoniae MDR ATCC 70063 (CO-ADD:GN_003); MIC in CAMBH media using NBS plates, by OD(600)

Escherichia coli = assay: microbe, parasite or virus in culture; conditions: ATCC 25922, 18 h, ASSAY_TEST Inhibition of Bacterial Growth, detection method Absorption (OD600), MEDIA CAMHB, plate type 384well, NBS, CORNING #3640
Description: Antibacterial activity against Escherichia coli ATCC 25922 (CO-ADD:GN_001); MIC in CAMBH media using NBS plates, by OD(600)

Acinetobacter baumannii = assay: microbe, parasite or virus in culture; conditions: ATCC 19606, 18 h, ASSAY_TEST Inhibition of Bacterial Growth, detection method Absorption (OD600), MEDIA CAMHB, plate type 384well, NBS, CORNING #3640
Description: Antibacterial activity against Acinetobacter baumannii ATCC 19606 (CO-ADD:GN_034); MIC in CAMBH media using NBS plates, by OD600

Pseudomonas aeruginosa = assay: microbe, parasite or virus in culture; conditions: ATCC 27853, 18 h, ASSAY_TEST Inhibition of Bacterial Growth, detection method Absorption (OD600), MEDIA CAMHB, plate type 384well, NBS, CORNING #3640
Description: Antibacterial activity against Pseudomonas aeruginosa ATCC 27853 (CO-ADD:GN_042); MIC in CAMBH media using NBS plates, by OD(600)

Description for Cryptococcus neoformans: Antifungal activity against Cryptococcus neoformans H99 ATCC 208821 (CO-ADD:FG_002); MIC in YNB media using NBS plates, by Resazurin OD(600-570)

Row | MIC (Candida albicans) | MIC (Staphylococcus aureus) | MIC (Klebsiella pneumoniae) | MIC (Cryptococcus neoformans) | MIC (Escherichia coli) | MIC (Acinetobacter baumannii) | MIC (Pseudomonas aeruginosa) | Compound | CC50 (HEK293)
1 | > 32 µg/mL | 0.5 µg/mL (≈ 1.58 µM) | > 32 µg/mL | > 32 µg/mL | > 32 µg/mL | > 32 µg/mL | > 32 µg/mL | CCCCCCCNC(=O)CCNC(=O)[C@H](O)C(C)(C)CO | > 32 µg/mL
2 | > 32 µg/mL | 32 µg/mL (≈ 99.3 µM) | > 32 µg/mL | > 32 µg/mL | > 32 µg/mL | > 32 µg/mL | > 32 µg/mL | CC(C)(CO)[C@@H](O)C(=O)NCCC(=O)NCCc1ccccc1 | > 32 µg/mL
3 | > 32 µg/mL | > 32 µg/mL | > 32 µg/mL | > 32 µg/mL | > 32 µg/mL | > 32 µg/mL | > 32 µg/mL | CCCCCCCNC(=O)/C=C/NC(=O)[C@H](O)C(C)(C)CO | > 32 µg/mL
4 | > 32 µg/mL | > 32 µg/mL | > 32 µg/mL | > 32 µg/mL | > 32 µg/mL | > 32 µg/mL | > 32 µg/mL | CCCCCCCNC(=O)CCNC(=O)C(O)C(C)(C)CN (stereo not given) | > 32 µg/mL
5 | > 32 µg/mL | > 32 µg/mL | > 32 µg/mL | > 32 µg/mL | > 32 µg/mL | > 32 µg/mL | > 32 µg/mL | CCCCCCCNC(=O)CCNC(=O)[C@H](O)C(C)(C)COP(=O)(O)O | > 32 µg/mL
6 | > 32 µg/mL | > 32 µg/mL | > 32 µg/mL | > 32 µg/mL | > 32 µg/mL | > 32 µg/mL | > 32 µg/mL | CN(CCc1ccccc1)C(=O)CCNC(=O)[C@H](O)C(C)(C)CO | > 32 µg/mL
7 | > 32 µg/mL | > 32 µg/mL | > 32 µg/mL | > 32 µg/mL | > 32 µg/mL | > 32 µg/mL | > 32 µg/mL | CCCCCCCNC(=O)CC(C)NC(=O)[C@H](O)C(C)(C)CO (stereo not given in full) | > 32 µg/mL
8 | > 32 µg/mL | > 32 µg/mL | > 32 µg/mL | > 32 µg/mL | > 32 µg/mL | > 32 µg/mL | > 32 µg/mL | CCCCCCCNC(=O)C(C)CNC(=O)[C@H](O)C(C)(C)CO (stereo not given in full) | > 32 µg/mL
9 | > 32 µg/mL | > 32 µg/mL | > 32 µg/mL | > 32 µg/mL | > 32 µg/mL | > 32 µg/mL | > 32 µg/mL | CCCCCCCN(C)C(=O)CCNC(=O)[C@H](O)C(C)(C)CO | > 32 µg/mL
10 | > 32 µg/mL | > 32 µg/mL | > 32 µg/mL | > 32 µg/mL | > 32 µg/mL | > 32 µg/mL | > 32 µg/mL | CC(CNC(=O)[C@H](O)C(C)(C)CO)C(=O)NCCc1ccccc1 (stereo not given in full) | > 32 µg/mL

From ChEMBL document CHEMBL4513148, “CO-ADD screening of Stellenbosch University (South Africa) compounds”
